Here are results for 5 compounds from ChEMBL document CHEMBL1144064, “Biological evaluation of proanthocyanidin dimers and related polyphenols” (J Nat Prod, 1999).

pIC50: −log10 of the molar value. Converted amounts (≈) assume the structure as drawn. The source made the active and inactive calls.

Data set [1] in a line: Antioxidant activity assessed as superoxide radical anion scavenging activity. The class given is functional.
A further data set concerns Simplexvirus. Put plainly: Antiviral activity against HSV up to 200 ug/mL by extracellular virucidal assay. The class given is functional, organism-based.
Data set [2] is described as follows: Cytotoxicity against human MT4 cells by MTT assay. The class given is cell-based. Background: Tetrazolium assays rely on reduction of a dye to a coloured formazan, in cell work by metabolically active cells.
Data set [3] in a line: Selectivity index, ratio of CC50 for human MT4 cells to IC50 for HIV infected in human MT4 cells. The format is functional.
Data set [4] has as its system Human immunodeficiency virus. The data set is described as follows: Antiviral activity against HIV infected in human MT4 cells assessed as inhibition of virus-induced cytopathic effect by MTT assay. The class given is functional, organism-based. The note with it: Human immunodeficiency virus 1, MT4. (Damage to the host cells serves as the signal in cytopathic effect assays.)

Another data set has as its system Klebsiella pneumoniae. Put plainly: Antimicrobial activity against Klebsiella pneumoniae. The format is functional.
Another data set has as its system Proteus vulgaris. Put plainly: Antimicrobial activity against Proteus vulgaris. The class given is functional.
The subject of the next data set is Candida albicans. The data set is described as follows: Antimicrobial activity against Candida albicans. The class given is functional.
For a further data set, the system named is Staphylococcus aureus. Put plainly: Antimicrobial activity against Staphylococcus aureus. The format is functional.
Data set [5] relates to Mycolicibacterium fortuitum. Put plainly: Antimicrobial activity against Mycobacterium fortuitum. The format is functional.
The subject of the next data set is Enterobacter cloacae. Put plainly: Antimicrobial activity against Enterobacter cloacae. The format is functional.
Another data set has as its system Salmonella paratyphi. The data set is described as follows: Antimicrobial activity against Salmonella paratyphi. The class given is functional, Salmonella enterica subsp. enterica serovar Paratyphi A. The note with it: Salmonella enterica.
A further data set has as its system Pseudomonas aeruginosa. Put plainly: Antimicrobial activity against Pseudomonas aeruginosa. The format is functional.
The subject of another data set is Escherichia coli. Put plainly: Antimicrobial activity against Escherichia coli. The class given is functional.
Data set [6] can be described thus: Modulation of classical complement pathway system assessed as hemoglobin release by spectrophotometry.
The nature of data set [7]: Modulation of alternative complement pathway system assessed as hemoglobin release by spectrophotometry.
The subject of the next data set is Bacillus cereus. Put plainly: Antimicrobial activity against Bacillus cereus. The format is functional.
A further data set has as its system Streptococcus pyogenes. Put plainly: Antimicrobial activity against Streptococcus pyogenes. The class given is functional.

What is called pIC50 is −log10 of the IC50, conventionally taken in molar units. Usually CC50 stands for the concentration giving 50% cytotoxicity. A lower CC50 goes with harm at low concentration. The term IC50 denotes the concentration that gives 50% inhibition. Broadly, the MIC is the smallest concentration in the dilution series that meets the test's criterion for growth inhibition.

As to `Oc1cc(O)c2c(c1)O[C@H](c1cc(O)c(O)c(O)c1)[C@H](O)C2` [EPIGALLOCATECHIN], the pIC50 in [1] is 5.47; in [6] it was 4.71; in data set [7] it was 3.75. In addition, the result with Simplexvirus was inactive. In addition, it took 16.1 µg/mL (≈ 52.6 µM) to reach half-maximal cytotoxicity in [2] (CC50). In [3], the “Ratio CC50/IC50” value was less than 1. Moreover, the IC50 in data set [4] is more than 16.1 µg/mL. For the same compound, the MBC against Klebsiella pneumoniae is 100 µg/mL (≈ 327 µM); against Proteus vulgaris, 100 µg/mL (≈ 327 µM); in the data set on Candida albicans it was more than 100 µg/mL; against Staphylococcus aureus, more than 100 µg/mL; in [5] it was more than 100 µg/mL; in the data set with Enterobacter cloacae, more than 100 µg/mL. Further, the MBC in the data set on Salmonella paratyphi, with Pseudomonas aeruginosa and in the data set on Escherichia coli was more than 100 µg/mL throughout. For the same compound, the MIC with Klebsiella pneumoniae was 100 µg/mL (≈ 327 µM); against Proteus vulgaris, 50 µg/mL (≈ 163 µM); against Candida albicans, more than 100 µg/mL; against Staphylococcus aureus it was more than 100 µg/mL; in [5] it was more than 100 µg/mL; with Enterobacter cloacae, more than 100 µg/mL. In addition, the MIC against Salmonella paratyphi, with Pseudomonas aeruginosa and against Escherichia coli was more than 100 µg/mL in each case.
As to `Oc1cc(O)c2c(c1)O[C@@]1(c3ccc(O)c(O)c3)Oc3cc(O)c4c(c3[C@@H]2[C@H]1O)O[C@H](c1ccc(O)c(O)c1)[C@@H](O)C4` [PROANTHOCYANIDIN A1], the pIC50 in [1] was 4.83; in data set [6], 4.24; in data set [7] it was 3.98. In addition, in the data set with Simplexvirus, the result was inactive. The CC50 in data set [2] came out at 144 µg/mL (≈ 250 µM). Moreover, the “Ratio CC50/IC50” value in data set [3] is 10. In [4], the IC50 was found to be 14 µg/mL (≈ 24.3 µM). Also, the minimum inhibitory concentration (MIC) in the data set on Proteus vulgaris is 50 µg/mL (≈ 86.7 µM); with Candida albicans it was more than 100 µg/mL; against Staphylococcus aureus, more than 100 µg/mL; in [5], more than 100 µg/mL; against Enterobacter cloacae it was more than 100 µg/mL; with Salmonella paratyphi it was more than 100 µg/mL. For the same compound, the MIC against Pseudomonas aeruginosa and against Escherichia coli was more than 100 µg/mL throughout. The MBC (in the data set with Candida albicans; in the data set with Staphylococcus aureus; in data set [5]; against Enterobacter cloacae; with Salmonella paratyphi; in the data set with Pseudomonas aeruginosa) was more than 100 µg/mL throughout. In the data set on Escherichia coli, this compound registered an MBC of more than 100 µg/mL.
Take `Oc1cc(O)c2c(c1)O[C@@]1(c3ccc(O)c(O)c3)Oc3cc(O)c4c(c3[C@@H]2[C@H]1O)O[C@H](c1ccc(O)c(O)c1)[C@H](O)C4` [PROANTHOCYANIDIN A2]: the pIC50 in data set [1] is 4.75; in data set [6] it was 4.94; in data set [7] it was 3.95. Also, the result in the data set on Simplexvirus was inactive. Further, in [2], the CC50 was 138 µg/mL (≈ 239 µM). The “Ratio CC50/IC50” value in data set [3] is recorded as 24. For the same compound, in data set [4], the half-maximal inhibitory concentration (IC50) was determined as 5.8 µg/mL (≈ 10.1 µM). For the same compound, the MIC was 100 µg/mL (≈ 173 µM) in the data set on Bacillus cereus; 50 µg/mL (≈ 86.7 µM) in the data set on Streptococcus pyogenes; more than 100 µg/mL in the data set with Candida albicans; more than 100 µg/mL against Staphylococcus aureus; more than 100 µg/mL in [5]; more than 100 µg/mL against Enterobacter cloacae. Further, the MIC in the data set on Salmonella paratyphi, against Pseudomonas aeruginosa and in the data set on Escherichia coli was more than 100 µg/mL throughout. Besides, the MBC is 50 µg/mL (≈ 86.7 µM) in the data set on Streptococcus pyogenes; more than 100 µg/mL against Candida albicans; more than 100 µg/mL in the data set with Staphylococcus aureus; more than 100 µg/mL in [5]; more than 100 µg/mL with Enterobacter cloacae; more than 100 µg/mL in the data set on Salmonella paratyphi. For the same compound, the MBC with Pseudomonas aeruginosa and against Escherichia coli was more than 100 µg/mL in each case.
For the compound `Oc1cc(O)c2c(c1)O[C@H](c1ccc(O)c(O)c1)[C@H](O)[C@H]2c1c(O)cc(O)c2c1O[C@H](c1ccc(O)c(O)c1)[C@H](O)C2` [PROCYANIDIN B2], the negative-log IC50 (pIC50) in data set [1] was 4.98; in [6] it was 4.24. Also, the outcome (in the data set on Simplexvirus; in [7]) was inactive. In [2], this compound had a CC50 of 135 µg/mL (≈ 234 µM). For the same compound, the “Ratio CC50/IC50” value in data set [3] was determined as 8. Further, in data set [4], the IC50 is 17.2 µg/mL (≈ 29.7 µM). Moreover, the MBC in the data set with Streptococcus pyogenes is 100 µg/mL (≈ 173 µM); with Candida albicans it was more than 100 µg/mL; in the data set with Staphylococcus aureus it was more than 100 µg/mL; in [5], more than 100 µg/mL; with Enterobacter cloacae, more than 100 µg/mL; with Salmonella paratyphi, more than 100 µg/mL. The MBC in the data set with Pseudomonas aeruginosa and in the data set with Escherichia coli was more than 100 µg/mL each time. Further, the MIC is 100 µg/mL (≈ 173 µM) in the data set on Streptococcus pyogenes; more than 100 µg/mL against Candida albicans; more than 100 µg/mL against Staphylococcus aureus; more than 100 µg/mL in data set [5]; more than 100 µg/mL against Enterobacter cloacae; more than 100 µg/mL in the data set with Salmonella paratyphi. Also, the MIC against Pseudomonas aeruginosa and against Escherichia coli was more than 100 µg/mL each time.
Take `Oc1cc(O)c2c(c1)O[C@H](c1ccc(O)c(O)c1)[C@H](O)[C@H]2c1c(O)cc(O)c2c1O[C@H](c1ccc(O)c(O)c1)[C@H](O)[C@H]2c1c(O)cc(O)c2c1O[C@H](c1ccc(O)c(O)c1)[C@H](O)C2` [PROCYANIDIN C1]: the results for the negative-log IC50 (pIC50) in data set [1], in data set [6] and in data set [7] were 4.97, 5.22 and 4.07, respectively. The result in the data set with Simplexvirus was inactive. In [2], this compound yielded a CC50 of 16.5 µg/mL (≈ 19 µM). In addition, in data set [3], the “Ratio CC50/IC50” value was 5. Moreover, the IC50 in [4] is 4.3 µg/mL (≈ 4.96 µM). In addition, the MBC in the data set on Streptococcus pyogenes was 100 µg/mL (≈ 115 µM); with Candida albicans it was more than 100 µg/mL; against Staphylococcus aureus, more than 100 µg/mL; in data set [5], more than 100 µg/mL; against Enterobacter cloacae, more than 100 µg/mL; in the data set with Salmonella paratyphi it was more than 100 µg/mL. Besides, the MBC with Pseudomonas aeruginosa and in the data set on Escherichia coli was more than 100 µg/mL in each case. In addition, the minimum inhibitory concentration (MIC) is 100 µg/mL (≈ 115 µM) against Streptococcus pyogenes; more than 100 µg/mL against Candida albicans; more than 100 µg/mL with Staphylococcus aureus; more than 100 µg/mL in [5]; more than 100 µg/mL with Enterobacter cloacae; more than 100 µg/mL against Salmonella paratyphi. Besides, the minimum inhibitory concentration (MIC) with Pseudomonas aeruginosa and in the data set on Escherichia coli was more than 100 µg/mL throughout.
